Data taken from patent EP4763839A1 (Pamplona Therapeutics (Shenzhen) Co., Ltd., priority 2023, dated 2025).
Structures can show the parent of a compound that is named as a salt.

Molecular target: T1, IRAK4 (Homo sapiens, UniProt Q9NWZ3)
T1 sequence (Q9NWZ3 1-460): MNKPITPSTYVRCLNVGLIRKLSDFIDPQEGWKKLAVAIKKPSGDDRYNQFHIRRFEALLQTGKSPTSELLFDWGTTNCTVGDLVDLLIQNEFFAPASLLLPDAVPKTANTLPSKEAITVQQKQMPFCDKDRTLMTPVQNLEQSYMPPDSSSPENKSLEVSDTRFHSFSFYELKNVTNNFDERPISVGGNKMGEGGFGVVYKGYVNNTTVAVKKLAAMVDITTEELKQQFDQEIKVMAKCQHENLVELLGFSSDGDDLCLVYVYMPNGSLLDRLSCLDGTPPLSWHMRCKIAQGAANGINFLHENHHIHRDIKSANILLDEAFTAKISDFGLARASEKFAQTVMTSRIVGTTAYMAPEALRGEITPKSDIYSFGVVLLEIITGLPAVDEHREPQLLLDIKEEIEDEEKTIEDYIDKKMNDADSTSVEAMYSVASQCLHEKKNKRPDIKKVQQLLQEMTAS
Assay: Degradation of IRAK4 in THP1 cells, Western blot
Format: cell-based
Design: Degradation of IRAK4 in THP1 by compound; host or cells: THP-1
Conditions: THP-1 cells, 24 hours of incubation; for DC50: IRAK4 protein by Western blot, read-out: DC50; for Dmax: maximum degradation rate, read-out: Dmax
In short: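 Degradation rate derived from densitometry of IRAK4 bands versus DMSO-treated controls. Read-out: anti-IRAK4 immunoblot (10% gel, 40 μg total protein per lane, BCA-normalised) of lysates from THP1 cells incubated with compound for 24 h.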

SMILES | DC50 | Dmax
NC(=O)c1nn(-c2ccc(N3CCN(CC4CC5(CCN(c6ccc(N7CCC(=O)NC7=O)cc6)CC5)C4)CC3)cc2)cc1NC(=O)c1cccc(C(F)(F)F)n1 [Compound A392, N-(3-Carbamoyl-1-(4-(4-((7-(4-(2,4-dioxotetrahydropyrimidin-1(2H)-yl)phenyl)-7-azaspiro[3.5]nonan-2-yl)methyl)piperazin-1-yl)phenyl)-1H-pyrazol-4-yl)-6-(trifluoromethyl)picolinamide] | 100 to 1000 nM | 40 to 60%
NC(=O)c1nn(-c2ccc(N3CCN(C(=O)C4CC5(CCN(c6ccc(N7CCC(=O)NC7=O)cc6)CC5)C4)CC3)cc2)cc1NC(=O)c1cccc(C(F)(F)F)n1 [Compound A394, N-(3-Carbamoyl-1-(4-(4-(7-(4-(2,4-dioxotetrahydropyrimidin-1(2H)-yl)phenyl)-7-azaspiro[3.5]nonane-2-carbonyl)piperazin-1-yl)phenyl)-1H-pyrazol-4-yl)-6-(trifluoromethyl)picolinamide] | 100 to 1000 nM | 40 to 60%
NC(=O)c1nn([C@H]2CC[C@H](N3CCN(CC4CN(c5ccc(N6CCC(=O)NC6=O)cc5)C4)CC3)CC2)cc1NC(=O)c1cccc(C(F)(F)F)n1 [Compound A403, N-(3-Carbamoyl-1-((1r,4r)-4-(4-((1-(4-(2,4-dioxotetrahydropyrimidin-1(2H)-yl)phenyl)azetidin-3-yl)methyl)piperazin-1-yl)cyclohexyl)-1H-pyrazol-4-yl)-6-(trifluoromethyl)picolinamide] | < 100 nM | 40 to 60%
NC(=O)c1nn(-c2ccc(N3CCN(C(=O)C4CCN(c5cc(F)c(C6CCC(=O)NC6=O)c(F)c5)C4)CC3)cc2)cc1NC(=O)c1cccc(C(F)(F)F)n1 (centres unmarked) [Compound A414] | < 100 nM | > 60%
COc1cc(NC2CCC(=O)NC2=O)ccc1N1CCC(CN2CCN(c3ccc(-n4cc(NC(=O)c5cccc(C(F)(F)F)n5)c(C(N)=O)n4)cc3)CC2)CC1 (centres unmarked) [Compound A423, N-(3-Carbamoyl-1-(4-(4-((1-(4-((2,6-dioxopiperidin-3-yl)amino)-2-methoxyphenyl)piperidin-4-yl)methyl)piperazin-1-yl)phenyl)-1H-pyrazol-4-yl)-6-(trifluoromethyl)picolinamide] | 100 to 1000 nM | > 60%
COc1cc(NC2CCC(=O)NC2=O)ccc1N1CCC(N2CCN(c3ccc(-n4cc(NC(=O)c5cccc(C(F)(F)F)n5)c(C(N)=O)n4)cc3)CC2)CC1 (centres unmarked) [Compound A425, N-(3-Carbamoyl-1-(4-(4-(1-(4-((2,6-dioxopiperidin-3-yl)amino)-2-methoxyphenyl)piperidin-4-yl)piperazin-1-yl)phenyl)-1H-pyrazol-4-yl)-6-(trifluoromethyl)picolinamide] | < 100 nM | > 60%
NC(=O)c1cn(-c2ccc(N3CCN(CC4CCN(c5ccc(NC6CCC(=O)NC6=O)cc5F)CC4)CC3)cc2)cc1NC(=O)c1cccc(C(F)(F)F)n1 (centres unmarked) [Compound A427, N-(4-Carbamoyl-1-(4-(4-((1-(4-((2,6-Dioxopiperidin-3-yl)amino)-2-fluorophenyl)piperidin-4-yl)methyl)piperazin-1-yl)phenyl)-1H-pyrrol-3-yl)-6-(trifluoromethyl)picolinamide] | < 100 nM | > 60%
NC(=O)c1cn(-c2ccc(N3CCN(C4CCN(c5ccc(NC6CCC(=O)NC6=O)cc5F)CC4)CC3)cc2)cc1NC(=O)c1cccc(C(F)(F)F)n1 (centres unmarked) [Compound A428, N-(4-Carbamoyl-1-(4-(4-(1-(4-((2,6-Dioxopiperidin-3-yl)amino)-2-fluorophenyl)piperidin-4-yl)piperazin-1-yl)phenyl)-1H-pyrrol-3-yl)-6-(trifluoromethyl)picolinamide] | < 100 nM | > 60%
NC(=O)c1nn(-c2ccc(N3CCN(C4CCN(c5ccc(OC6CCC(=O)NC6=O)cc5F)CC4)CC3)cc2)cc1NC(=O)c1cccc(C(F)(F)F)n1 (centres unmarked) [Compound A430, N-(3-Carbamoyl-1-(4-(4-(1-(4-((2,6-dioxopiperidin-3-yl)oxy)-2-fluorophenyl)piperidin-4-yl)piperazin-1-yl)phenyl)-1H-pyrazol-4-yl)-6-(trifluoromethyl)picolinamide] | < 100 nM | > 60%
NC(=O)c1nn(-c2ccc(N3CCN(C4CCN(c5ccc(NC6CCC(=O)NC6=O)cn5)CC4)CC3)cc2)cc1NC(=O)c1cccc(C(F)(F)F)n1 (centres unmarked) [Compound A432, N-(3-Carbamoyl-1-(4-(4-(1-(5-((2,6-Dioxopiperidin-3-yl)amino)pyridin-2-yl)piperidin-4-yl)piperazin-1-yl)phenyl)-1H-pyrazol-4-yl)-6-(trifluoromethyl)picolinamide] | 100 to 1000 nM | 40 to 60%
NC(=O)c1nn(-c2ccc(N3CCN(C4CCN(c5ccc(C(=O)NC6CCC(=O)NC6=O)cn5)CC4)CC3)cc2)cc1NC(=O)c1cccc(C(F)(F)F)n1 (centres unmarked) [Compound A433, N-(3-Carbamoyl-1-(4-(4-(1-(5-((2,6-dioxopiperidin-3-yl)carbamoyl)pyridin-2-yl)piperidin-4-yl)piperazin-1-yl)phenyl)-1H-pyrazol-4-yl)-6-(trifluoromethyl)picolinamide] | 100 to 1000 nM | 40 to 60%

The next lines start with the values.

DC50 | Dmax | SMILES
< 100 nM | > 60% | NC(=O)c1nn(-c2ccc(N3CCN(C4CCC5(CC4)CN(c4ccc(N6CCC(=O)NC6=O)cc4)C5)CC3)cc2)cc1NC(=O)c1cccc(C(F)(F)F)n1 [Compound A391, N-(3-Carbamoyl-1-(4-(4-(2-(4-(2,4-dioxotetrahydropyrimidin-1(2H)-yl)phenyl)-2-azaspiro[3.5]nonan-7-yl)piperazin-1-yl)phenyl)-1H-pyrazol-4-yl)-6-(trifluoromethyl)picolinamide]
< 100 nM | > 60% | NC(=O)c1nn(-c2ccc(N3CCN(CC4CCN(c5ccc(NC6CCC(=O)NC6=O)cn5)CC4)CC3)cc2)cc1NC(=O)c1cccc(C(F)(F)F)n1 (centres unmarked) [Compound A396, N-(3-Carbamoyl-1-(4-(4-((1-(5-((2,6-dioxopiperidin-3-yl)amino)pyridin-2-yl)piperidin-4-yl)methyl)piperazin-1-yl)phenyl)-1H-pyrazol-4-yl)-6-(trifluoromethyl)picolinamide]
< 100 nM | > 60% | NC(=O)c1nn(-c2ccc(N3CCN(CCC4CCN(C(=O)c5ccc(F)c(N6CCC(=O)NC6=O)c5)CC4)CC3)cc2)cc1NC(=O)c1cccc(C(F)(F)F)n1 [Compound A402, N-(3-Carbamoyl-1-(4-(4-(2-(1-(3-(2,4-dioxotetrahydropyrimidin-1(2H)-yl)-4-fluorobenzoyl)piperidin-4-yl)ethyl)piperazin-1-yl)phenyl)-1H-pyrazol-4-yl)-6-(trifluoromethyl)picolinamide trifluoroacetate]
< 100 nM | > 60% | NC(=O)c1nn(-c2ccc(N3CCN(C(=O)C4CN(c5ccc(N6CCC(=O)NC6=O)cc5)C4)CC3)cc2)cc1NC(=O)c1cccc(C(F)(F)F)n1 [Compound A409, N-(3-Carbamoyl-1-(4-(4-(1-(4-(2,4-dioxotetrahydropyrimidin-1(2H)-yl)phenyl)azetidine-3-carbonyl)piperazin-1-yl)phenyl)-1H-pyrazol-4-yl)-6-(trifluoromethyl)picolinamide]
< 100 nM | > 60% | NC(=O)c1nn(-c2ccc(N3CCN(C(=O)C4CN(c5cc(F)c(C6CCC(=O)NC6=O)c(F)c5)C4)CC3)cc2)cc1NC(=O)c1cccc(C(F)(F)F)n1 (centres unmarked) [Compound A411, N-(3-carbamoyl-1-(4-(4-(1-(4-(2,6-dioxopiperidin-3-yl)-3,5-difluorophenyl)azetidine-3-carbonyl)piperazin-1-yl)phenyl)-1H-pyrazol-4-yl)-6-(trifluoromethyl)picolinamide]
< 100 nM | > 60% | NC(=O)c1nn(-c2ccc(N3CCN(C(=O)C4CCN(c5ccc(OC6CCC(=O)NC6=O)cn5)CC4)CC3)cc2)cc1NC(=O)c1cccc(C(F)(F)F)n1 (centres unmarked) [Compound A415, N-(3-Carbamoyl-1-(4-(4-(1-(5-((2,6-dioxopiperidin-3-yl)oxy)pyridin-2-yl)piperidine-4-carbonyl)piperazin-1-yl)phenyl)-1H-pyrazol-4-yl)-6-(trifluoromethyl)picolinamide]
< 100 nM | > 60% | NC(=O)c1nn(-c2ccc(N3CCN(CC4CCN(c5ccc(OC6CCC(=O)NC6=O)cc5F)CC4)CC3)cc2)cc1NC(=O)c1cccc(C(F)(F)F)n1 (centres unmarked) [Compound A421, N-(3-Carbamoyl-1-(4-(4-((1-(4-((2,6-dioxopiperidin-3-yl)oxy)-2-fluorophenyl)piperidin-4-yl)methyl)piperazin-1-yl)phenyl)-1H-pyrazol-4-yl)-6-(trifluoromethyl)picolinamide]
< 100 nM | > 60% | NC(=O)c1nn(-c2ccc(N3CCN(C4CCN(c5ccc(C(=O)NC6CCC(=O)NC6=O)c(F)c5)CC4)CC3)cc2)cc1NC(=O)c1cccc(C(F)(F)F)n1 (centres unmarked) [Compound A422, N-(3-Carbamoyl-1-(4-(4-(1-(4-((2,6-dioxopiperidin-3-yl)carbamoyl)-3-fluorophenyl)piperidin-4-yl)piperazin-1-yl)phenyl)-1H-pyrazol-4-yl)-6-(trifluoromethyl)picolinamide]
